Source: ChEMBL document CHEMBL4630901 (2021)

How the values were obtained:
[1] = target: Sigma non-opioid intracellular receptor 1 (Homo sapiens) (UniProt Q99720); conditions: Compound concentration 10.0 uM
[2] = target: Histamine H3 receptor (Homo sapiens) (UniProt Q9Y5N1); conditions: Compound concentration 10.0 uM
[3] = target: D(4) dopamine receptor (Homo sapiens) (UniProt P21917); conditions: Compound concentration 10.0 uM
Rattus norvegicus = organism: Rattus norvegicus; conditions: Compound concentration 10.0 uM
[4] = target: T1, Alpha-1A adrenergic receptor (Homo sapiens) (UniProt P35348); conditions: Rattus norvegicus; Compound concentration 10.0 uM
T1 sequence (whole entry): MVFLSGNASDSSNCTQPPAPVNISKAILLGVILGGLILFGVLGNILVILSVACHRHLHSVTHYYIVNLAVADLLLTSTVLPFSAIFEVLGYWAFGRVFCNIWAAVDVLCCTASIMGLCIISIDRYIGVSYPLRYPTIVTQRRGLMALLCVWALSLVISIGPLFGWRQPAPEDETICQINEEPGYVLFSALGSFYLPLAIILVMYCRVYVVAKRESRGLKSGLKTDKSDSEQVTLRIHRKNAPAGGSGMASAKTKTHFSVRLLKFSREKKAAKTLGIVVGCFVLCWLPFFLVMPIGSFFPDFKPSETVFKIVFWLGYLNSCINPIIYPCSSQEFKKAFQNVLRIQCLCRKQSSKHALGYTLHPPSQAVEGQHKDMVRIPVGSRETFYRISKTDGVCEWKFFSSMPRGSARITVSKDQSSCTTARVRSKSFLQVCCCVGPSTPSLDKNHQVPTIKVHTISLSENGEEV

[5] = target: Adenosine receptor A1 (Homo sapiens) (UniProt P30542); conditions: Compound concentration 10.0 uM
[6] = target: Prostaglandin E2 receptor EP4 subtype (Homo sapiens) (UniProt P35408); assay: Inhibition of Prostanoid EP4 at 10 µM in the Eurofins-Panlabs radioligand binding assay (Eurofins_assay_268420); design: ligand concentration 1 nM
[7] = target: T2, Alpha-2C adrenergic receptor (Homo sapiens) (UniProt P18825); conditions: Compound concentration 10.0 uM
T2 sequence (whole entry): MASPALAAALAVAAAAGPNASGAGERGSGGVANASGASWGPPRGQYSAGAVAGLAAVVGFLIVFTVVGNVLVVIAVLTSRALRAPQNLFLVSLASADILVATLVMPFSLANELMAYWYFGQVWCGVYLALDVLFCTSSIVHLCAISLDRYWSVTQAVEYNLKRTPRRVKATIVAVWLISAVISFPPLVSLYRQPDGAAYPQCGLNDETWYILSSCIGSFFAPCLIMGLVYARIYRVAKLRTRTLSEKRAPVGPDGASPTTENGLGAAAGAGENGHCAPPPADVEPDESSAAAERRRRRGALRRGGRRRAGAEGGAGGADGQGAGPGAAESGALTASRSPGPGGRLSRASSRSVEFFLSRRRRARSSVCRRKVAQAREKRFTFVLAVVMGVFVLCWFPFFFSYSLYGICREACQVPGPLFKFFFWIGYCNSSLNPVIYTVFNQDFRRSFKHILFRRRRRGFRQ

[8] = target: Glutamate receptor ionotropic, kainate (Rattus norvegicus) (UniProt P22756+Q01812+P42260+P42264+Q63273); assay: Inhibition of Glutamate, Kainate at 10 µM in the Eurofins-Panlabs radioligand binding assay (Eurofins_assay_232700); conditions: Compound concentration 10.0 uM
[9] = target: Histamine H3 receptor (Homo sapiens) (UniProt Q9Y5N1); conditions: Compound concentration 10.0 uM; remark: listed apart in the source
[10] = target: D(2) dopamine receptor (Homo sapiens) (UniProt P14416); conditions: Compound concentration 10.0 uM
[11] = target: T3, Prostaglandin D2 receptor (Homo sapiens) (UniProt Q13258); assay: Prostanoid DP Eurofins-Panlabs radioligand binding assay; design: ligand concentration 2 nM
T3 sequence (whole entry): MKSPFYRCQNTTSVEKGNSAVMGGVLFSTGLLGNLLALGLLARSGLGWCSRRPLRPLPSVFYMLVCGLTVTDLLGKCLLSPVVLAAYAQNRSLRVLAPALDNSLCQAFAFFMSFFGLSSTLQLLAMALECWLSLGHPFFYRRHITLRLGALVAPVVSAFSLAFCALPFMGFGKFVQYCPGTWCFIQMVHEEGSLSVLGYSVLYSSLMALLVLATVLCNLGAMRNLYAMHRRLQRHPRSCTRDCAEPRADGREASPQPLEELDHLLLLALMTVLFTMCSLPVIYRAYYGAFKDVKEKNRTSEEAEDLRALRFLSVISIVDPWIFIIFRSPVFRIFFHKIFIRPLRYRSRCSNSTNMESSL

[12] = target: Mu-type opioid receptor (Homo sapiens) (UniProt P35372); conditions: Compound concentration 10.0 uM
[13] = target: Beta-2 adrenergic receptor (Homo sapiens) (UniProt P07550); conditions: Compound concentration 10.0 uM
[14] = target: Cannabinoid receptor 2 (Homo sapiens) (UniProt P34972); conditions: Compound concentration 10.0 uM
[15] = target: Estrogen receptor (Homo sapiens) (UniProt P03372); conditions: Compound concentration 10.0 uM
[16] = target: Prostaglandin F2-alpha receptor (Homo sapiens, UniProt P43088); assay: Prostanoid FP Eurofins-Panlabs radioligand binding assay; design: ligand concentration 1 nM
[17] = target: Adenosine receptor A3 (Homo sapiens) (UniProt P0DMS8); conditions: Compound concentration 10.0 uM
[18] = target: T4, Prostaglandin E2 receptor EP3 subtype (Homo sapiens) (UniProt P43115); assay: Prostanoid EP3 Eurofins-Panlabs radioligand binding assay; design: ligand concentration 0.5 nM
T4 sequence (whole entry): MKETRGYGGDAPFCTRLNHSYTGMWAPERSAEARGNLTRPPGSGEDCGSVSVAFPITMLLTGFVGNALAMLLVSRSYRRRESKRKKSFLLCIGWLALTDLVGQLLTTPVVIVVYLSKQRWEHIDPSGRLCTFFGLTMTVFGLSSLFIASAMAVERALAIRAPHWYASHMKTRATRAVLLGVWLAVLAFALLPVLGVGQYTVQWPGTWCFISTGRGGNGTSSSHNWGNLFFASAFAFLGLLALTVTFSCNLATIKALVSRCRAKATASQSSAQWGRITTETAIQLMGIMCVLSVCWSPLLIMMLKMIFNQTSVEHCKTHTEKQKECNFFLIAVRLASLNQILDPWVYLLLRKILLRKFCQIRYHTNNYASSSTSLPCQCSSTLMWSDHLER

[19] = Compound concentration 0.001 uM

Chain of Prostaglandin E2 receptor EP4 subtype (Homo sapiens) (P35408 whole entry): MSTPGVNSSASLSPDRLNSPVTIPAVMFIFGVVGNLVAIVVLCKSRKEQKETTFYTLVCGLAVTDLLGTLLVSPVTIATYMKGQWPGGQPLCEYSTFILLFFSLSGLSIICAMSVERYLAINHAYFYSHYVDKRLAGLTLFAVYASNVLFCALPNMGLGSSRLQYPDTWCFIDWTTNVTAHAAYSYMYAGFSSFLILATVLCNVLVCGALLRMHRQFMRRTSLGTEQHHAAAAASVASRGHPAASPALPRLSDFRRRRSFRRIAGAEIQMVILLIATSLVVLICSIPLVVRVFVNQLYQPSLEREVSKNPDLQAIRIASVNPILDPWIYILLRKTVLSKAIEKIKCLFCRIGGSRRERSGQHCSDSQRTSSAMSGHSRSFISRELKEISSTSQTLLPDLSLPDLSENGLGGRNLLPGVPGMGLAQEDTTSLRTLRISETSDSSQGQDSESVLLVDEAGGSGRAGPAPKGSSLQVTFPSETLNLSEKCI
Chain of Prostaglandin F2-alpha receptor (P43088 whole entry): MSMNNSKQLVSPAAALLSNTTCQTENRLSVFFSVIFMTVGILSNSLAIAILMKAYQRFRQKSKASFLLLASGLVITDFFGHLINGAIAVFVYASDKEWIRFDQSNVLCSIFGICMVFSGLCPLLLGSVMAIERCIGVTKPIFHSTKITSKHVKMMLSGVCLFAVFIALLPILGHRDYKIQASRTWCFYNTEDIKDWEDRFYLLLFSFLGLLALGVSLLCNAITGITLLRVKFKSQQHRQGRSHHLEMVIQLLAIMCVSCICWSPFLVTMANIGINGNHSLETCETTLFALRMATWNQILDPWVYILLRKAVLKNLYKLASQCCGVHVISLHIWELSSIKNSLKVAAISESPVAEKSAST
Chain of Histamine H3 receptor (Homo sapiens) (Q9Y5N1 whole entry): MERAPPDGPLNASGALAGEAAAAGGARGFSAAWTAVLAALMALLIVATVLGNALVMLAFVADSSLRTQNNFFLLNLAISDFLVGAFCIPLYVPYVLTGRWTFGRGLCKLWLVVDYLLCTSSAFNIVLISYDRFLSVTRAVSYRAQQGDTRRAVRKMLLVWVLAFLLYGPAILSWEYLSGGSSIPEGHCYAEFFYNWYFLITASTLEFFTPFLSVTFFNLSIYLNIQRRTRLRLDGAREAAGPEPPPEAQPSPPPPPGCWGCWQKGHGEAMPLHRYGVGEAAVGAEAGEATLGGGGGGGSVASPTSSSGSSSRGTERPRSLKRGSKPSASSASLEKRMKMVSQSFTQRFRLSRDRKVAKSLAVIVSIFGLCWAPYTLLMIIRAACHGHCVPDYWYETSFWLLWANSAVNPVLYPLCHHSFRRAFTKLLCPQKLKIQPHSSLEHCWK
Chain of D(4) dopamine receptor (Homo sapiens) (P21917 whole entry): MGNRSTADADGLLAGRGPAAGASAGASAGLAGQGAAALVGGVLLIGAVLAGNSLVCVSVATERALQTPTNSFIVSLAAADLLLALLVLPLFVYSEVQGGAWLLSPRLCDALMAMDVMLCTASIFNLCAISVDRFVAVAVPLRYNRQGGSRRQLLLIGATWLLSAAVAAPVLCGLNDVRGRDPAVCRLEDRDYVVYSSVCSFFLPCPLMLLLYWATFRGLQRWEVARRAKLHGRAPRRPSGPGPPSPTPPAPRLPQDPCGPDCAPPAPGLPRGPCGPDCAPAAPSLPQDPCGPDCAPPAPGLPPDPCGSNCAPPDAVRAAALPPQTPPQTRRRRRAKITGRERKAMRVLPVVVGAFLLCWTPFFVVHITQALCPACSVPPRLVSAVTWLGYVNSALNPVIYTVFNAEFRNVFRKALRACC
Chain of Mu-type opioid receptor (Homo sapiens) (P35372 whole entry): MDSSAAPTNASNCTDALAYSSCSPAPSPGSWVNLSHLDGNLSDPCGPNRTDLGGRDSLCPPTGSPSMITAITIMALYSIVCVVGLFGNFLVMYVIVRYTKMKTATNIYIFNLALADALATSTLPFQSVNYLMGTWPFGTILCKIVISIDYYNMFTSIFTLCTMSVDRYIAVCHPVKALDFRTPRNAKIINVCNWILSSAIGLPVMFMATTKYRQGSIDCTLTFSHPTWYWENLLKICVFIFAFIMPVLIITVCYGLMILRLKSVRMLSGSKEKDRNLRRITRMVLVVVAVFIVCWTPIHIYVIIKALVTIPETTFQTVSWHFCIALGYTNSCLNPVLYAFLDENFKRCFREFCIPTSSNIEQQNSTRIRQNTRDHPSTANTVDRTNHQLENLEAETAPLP
Chain of Sigma non-opioid intracellular receptor 1 (Homo sapiens) (Q99720 whole entry): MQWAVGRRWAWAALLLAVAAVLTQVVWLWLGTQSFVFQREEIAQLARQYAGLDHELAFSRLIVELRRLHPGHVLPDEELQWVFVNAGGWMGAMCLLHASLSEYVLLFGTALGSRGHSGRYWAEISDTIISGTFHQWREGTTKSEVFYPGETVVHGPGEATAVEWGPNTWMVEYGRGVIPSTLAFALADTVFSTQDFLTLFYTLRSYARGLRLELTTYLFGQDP
Chain of Beta-2 adrenergic receptor (Homo sapiens) (P07550 whole entry, looked up): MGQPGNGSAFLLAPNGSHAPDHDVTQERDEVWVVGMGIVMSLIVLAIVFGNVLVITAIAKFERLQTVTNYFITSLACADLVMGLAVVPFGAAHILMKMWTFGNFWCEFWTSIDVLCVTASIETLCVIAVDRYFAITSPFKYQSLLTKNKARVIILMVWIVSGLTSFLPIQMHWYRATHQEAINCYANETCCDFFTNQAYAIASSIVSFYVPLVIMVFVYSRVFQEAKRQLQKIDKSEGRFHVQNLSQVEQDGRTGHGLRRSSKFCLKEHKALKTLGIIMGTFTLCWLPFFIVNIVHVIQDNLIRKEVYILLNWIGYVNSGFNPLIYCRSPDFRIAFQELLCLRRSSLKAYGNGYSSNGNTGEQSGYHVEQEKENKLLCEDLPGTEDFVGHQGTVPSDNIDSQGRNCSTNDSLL
Chain of Cannabinoid receptor 2 (Homo sapiens) (P34972 whole entry): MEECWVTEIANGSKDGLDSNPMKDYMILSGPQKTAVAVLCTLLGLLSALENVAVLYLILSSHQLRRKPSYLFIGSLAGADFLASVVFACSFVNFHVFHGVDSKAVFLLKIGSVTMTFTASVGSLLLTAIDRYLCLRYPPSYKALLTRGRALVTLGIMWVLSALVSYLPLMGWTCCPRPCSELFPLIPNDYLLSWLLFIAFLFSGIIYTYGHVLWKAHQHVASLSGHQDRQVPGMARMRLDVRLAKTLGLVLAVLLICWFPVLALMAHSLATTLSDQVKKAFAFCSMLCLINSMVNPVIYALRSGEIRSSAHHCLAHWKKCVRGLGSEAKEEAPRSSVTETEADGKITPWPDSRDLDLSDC
Chain of Adenosine receptor A1 (Homo sapiens) (P30542 whole entry): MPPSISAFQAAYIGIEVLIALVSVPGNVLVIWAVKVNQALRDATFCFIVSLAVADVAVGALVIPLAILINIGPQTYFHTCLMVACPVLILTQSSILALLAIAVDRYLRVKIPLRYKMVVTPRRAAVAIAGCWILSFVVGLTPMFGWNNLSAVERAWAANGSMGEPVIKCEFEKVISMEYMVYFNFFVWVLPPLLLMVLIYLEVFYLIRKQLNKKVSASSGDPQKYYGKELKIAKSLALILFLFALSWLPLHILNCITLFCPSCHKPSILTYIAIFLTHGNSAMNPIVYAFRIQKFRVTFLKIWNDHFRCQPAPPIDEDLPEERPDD
Chain of Estrogen receptor (Homo sapiens) (P03372 whole entry): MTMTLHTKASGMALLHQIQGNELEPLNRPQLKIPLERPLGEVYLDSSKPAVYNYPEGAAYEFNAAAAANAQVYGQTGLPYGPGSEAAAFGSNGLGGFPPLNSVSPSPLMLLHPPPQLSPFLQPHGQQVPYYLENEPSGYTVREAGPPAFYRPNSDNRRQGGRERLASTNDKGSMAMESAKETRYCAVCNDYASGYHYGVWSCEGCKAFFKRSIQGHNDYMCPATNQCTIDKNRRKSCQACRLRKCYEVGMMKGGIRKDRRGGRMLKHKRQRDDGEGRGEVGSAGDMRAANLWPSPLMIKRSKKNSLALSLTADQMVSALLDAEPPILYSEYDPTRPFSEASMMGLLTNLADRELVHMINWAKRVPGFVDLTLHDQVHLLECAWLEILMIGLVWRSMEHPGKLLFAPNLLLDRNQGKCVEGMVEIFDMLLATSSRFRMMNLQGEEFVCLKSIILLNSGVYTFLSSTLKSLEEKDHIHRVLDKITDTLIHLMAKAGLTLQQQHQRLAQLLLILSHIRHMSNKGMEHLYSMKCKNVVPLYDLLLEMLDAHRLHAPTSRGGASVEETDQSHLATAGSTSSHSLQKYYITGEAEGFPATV
Chain of D(2) dopamine receptor (Homo sapiens) (P14416 whole entry): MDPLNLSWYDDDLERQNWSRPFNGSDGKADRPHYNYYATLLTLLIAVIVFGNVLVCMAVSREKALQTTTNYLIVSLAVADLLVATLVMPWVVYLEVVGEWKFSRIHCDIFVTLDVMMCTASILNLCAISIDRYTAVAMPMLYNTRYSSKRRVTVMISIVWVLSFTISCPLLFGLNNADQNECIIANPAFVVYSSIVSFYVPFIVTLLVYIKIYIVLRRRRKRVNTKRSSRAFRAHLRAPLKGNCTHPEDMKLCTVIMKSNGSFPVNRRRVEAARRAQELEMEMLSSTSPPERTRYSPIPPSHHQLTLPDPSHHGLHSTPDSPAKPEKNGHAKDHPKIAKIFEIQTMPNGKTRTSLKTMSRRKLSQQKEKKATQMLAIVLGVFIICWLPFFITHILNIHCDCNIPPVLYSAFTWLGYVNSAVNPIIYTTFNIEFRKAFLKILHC
Chain of Adenosine receptor A3 (Homo sapiens) (P0DMS8 whole entry): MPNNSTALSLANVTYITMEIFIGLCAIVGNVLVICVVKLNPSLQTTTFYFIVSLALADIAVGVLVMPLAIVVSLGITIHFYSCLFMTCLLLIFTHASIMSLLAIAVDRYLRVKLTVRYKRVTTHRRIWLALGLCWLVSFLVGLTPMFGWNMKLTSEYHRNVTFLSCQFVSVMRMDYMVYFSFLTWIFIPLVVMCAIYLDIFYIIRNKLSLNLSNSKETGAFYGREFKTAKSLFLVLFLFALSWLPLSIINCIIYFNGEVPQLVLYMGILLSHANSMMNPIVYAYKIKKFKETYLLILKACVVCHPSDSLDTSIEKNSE

Cc1c(N2CCNCC2)nc2ccc(Br)cc2c1C(=O)NC[C@H](CCC(=O)O)c1ccccc1Cl [BAY-403] showed an inhibition [1] of 36.5%, an inhibition [2] of 16.9% and an inhibition [3] of 5.89%. The inhibition (Rattus norvegicus) was 20%.

In the case of Cc1c(N2CCCC2)nc2ccc(Br)cc2c1C(=O)NC[C@H](CCC(=O)O)c1ccccc1Cl [BAY-6672], the inhibition [4] is reported as 6%, the inhibition [3] is reported as 1.48% and the inhibition [5] is reported as 5%. The inhibition [6, 19] was -6%, the inhibition ([6]; Compound concentration 0.01 uM) was -1% and the inhibition ([6]; Compound concentration 0.1 uM) was 6%. The inhibition ([6]; Compound concentration 1.0 uM) was 17%, the inhibition ([6]; Compound concentration 10.0 uM) was 48% and the inhibition [7] was 6%. It also gave an inhibition [8] of 11%, an inhibition [9] of -0% and an inhibition [10] of 6%. For the same molecule, the inhibition [11, 19] was 6%, the inhibition ([11]; Compound concentration 0.01 uM) was 6% and the inhibition ([11]; Compound concentration 0.1 uM) was 18%. The inhibition ([11]; Compound concentration 1.0 uM) was 24%, the inhibition ([11]; Compound concentration 10.0 uM) was 42% and the inhibition [12] was 21%. The inhibition (Rattus norvegicus) was -2.43%, the inhibition [13] was 18% and the inhibition [14] was 13%. The inhibition [15] was 1%, the inhibition [16, 19] was 7% and the inhibition ([16]; Compound concentration 0.01 uM) was 35%. For the same molecule, the inhibition ([16]; Compound concentration 0.1 uM) was 79%, the inhibition ([16]; Compound concentration 1.0 uM) was 94% and the inhibition ([16]; Compound concentration 10.0 uM) was 97%. The inhibition [17] was 15%, the inhibition [18, 19] was 7% and the inhibition ([18]; Compound concentration 0.01 uM) was 2%. For the same molecule, the inhibition ([18]; Compound concentration 0.1 uM) was 17%, the inhibition ([18]; Compound concentration 1.0 uM) was 10% and the inhibition ([18]; Compound concentration 10.0 uM) was 15%.
